Data as given in ChEMBL document CHEMBL1145849, “QSAR and the rational design of long-acting dual D2-receptor/beta 2-adrenoceptor agonists” (J Med Chem, 2003).
Several values for one entry are separate records, joined by “and”; a condition that tells them apart may be missing. Equal entries are not always repeated.

Tests used:
[1] = target: Beta-2 adrenergic receptor (Cavia porcellus) (UniProt Q8K4Z4); conditions: Trachea
Description: Beta-2-adrenoceptor potency was determined in rings of guinea-pig isolated trachea

physchem [2] = conditions: octanol/water, pH 7.4, logD
[3] = target: Beta-2 adrenergic receptor (Cavia porcellus) (UniProt Q8K4Z4)
Description: In vitro beta-2 duration was determined using electrically stimulated guinea-pig isolated trachea superfusion system

physchem [4] = assay: physchem
Description: (§1) Classification of ionization constant (pKa)

physchem [5] = assay: physchem; remark: listed apart in the source
Description: as §1

physchem [6] = assay: physchem; remark: listed apart in the source
Description: Ionization constant (pKa)

[7] = target: D(2) dopamine receptor (Homo sapiens) (UniProt P14416); assay: […] D2 duration was determined using electrically stimulated guinea-pig isolated trachea superfusion system; assay type: functional; conditions: Cavia porcellus, target entry is the homologue from another species
Sequence of D(2) dopamine receptor (Homo sapiens) (P14416 whole entry, the tested form may be a part): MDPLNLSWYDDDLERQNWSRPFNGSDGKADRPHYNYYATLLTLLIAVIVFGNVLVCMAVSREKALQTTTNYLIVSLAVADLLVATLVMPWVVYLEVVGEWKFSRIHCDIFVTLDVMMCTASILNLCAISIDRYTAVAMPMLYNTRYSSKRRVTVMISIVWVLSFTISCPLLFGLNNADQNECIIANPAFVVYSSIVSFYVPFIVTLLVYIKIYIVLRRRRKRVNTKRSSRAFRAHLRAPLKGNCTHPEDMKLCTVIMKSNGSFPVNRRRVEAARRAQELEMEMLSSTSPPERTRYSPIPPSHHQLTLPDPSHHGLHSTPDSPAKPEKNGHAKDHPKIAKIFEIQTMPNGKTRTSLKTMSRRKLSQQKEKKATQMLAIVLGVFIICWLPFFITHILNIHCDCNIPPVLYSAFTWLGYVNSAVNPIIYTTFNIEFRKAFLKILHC

[8] = octanol/water, pH 7.4

Sequence of Beta-2 adrenergic receptor (Cavia porcellus) (Q8K4Z4 whole entry, looked up): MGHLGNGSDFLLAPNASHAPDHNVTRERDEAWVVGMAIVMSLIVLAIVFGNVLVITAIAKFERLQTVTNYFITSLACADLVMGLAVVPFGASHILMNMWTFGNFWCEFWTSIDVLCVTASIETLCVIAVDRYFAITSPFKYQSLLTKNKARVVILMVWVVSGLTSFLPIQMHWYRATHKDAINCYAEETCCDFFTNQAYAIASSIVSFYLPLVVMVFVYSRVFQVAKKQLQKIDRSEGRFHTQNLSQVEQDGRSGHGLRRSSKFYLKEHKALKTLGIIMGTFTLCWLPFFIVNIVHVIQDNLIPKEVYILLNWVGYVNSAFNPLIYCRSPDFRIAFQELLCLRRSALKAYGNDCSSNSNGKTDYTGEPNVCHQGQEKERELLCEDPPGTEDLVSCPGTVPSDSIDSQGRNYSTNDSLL

SMILES | p[A]50 [1] | logD (physchem [2]) | Beta2 duration [3] | pKa (physchem [4]) | pKa (physchem [5]) | pKa (physchem [6]) | D2 duration [7] [min] | logD [8]
O=S(=O)(CCOCCc1ccccc1)NCCNCCc1ccc(O)c2nc(O)sc12 | 7.39 | 1.56 | 135 min | 7.5 | 8.58 | > 8 | – | –
Oc1nc2c(O)ccc(CCNCCOCCCOCCc3ccccc3)c2s1 | 7.16 | 2.06 | > 1080 min | 7.55 | 8.68 | > 8 | – | –
Oc1nc2c(O)ccc(CCNCCCCCCOCCc3ccccc3)c2s1 | 8.23 | 2.73 | > 180 min | – | – | > 8 | 270 | –
O=S(=O)(CCCNCCc1ccc(O)c2nc(O)sc12)CCOCCc1ccccc1 | 7.93 | 1.37 | 140 min | 7.35 | 9.07 | > 8 | 270 | –
Oc1nc2c(O)ccc(CCNCCCCCCNCC(F)(F)c3ccccc3)c2s1 | 6.84 | 1.57 | > 180 min | – | – | > 8 | – | –
O=S(=O)(CCNCCc1ccc(O)c2nc(O)sc12)NCCOCCc1ccccc1 | 6.48 | 2.38 | 79 min | – | – | > 8 | – | –
Oc1nc2cccc(CCNCCCCCCNCCc3ccc(O)c4nc(O)sc34)c2s1 | 7.86 | 1 | 45 min | – | – | > 8 | – | –
O=S(=O)(CCCOCCc1ccccn1)CCNCCc1ccc(O)c2nc(O)sc12 | 7.49 | 0.95 | 24 min | – | – | < 8 | – | –
NC(=O)c1ccc(CCOCCCS(=O)(=O)CCNCCc2ccc(O)c3nc(O)sc23)cc1 | 7.54 | 1.1 | 50 min | – | – | < 8 | – | –
O=c1[nH]c2c(O)ccc(CCNCCS(=O)(=O)CCCOCCc3ccccc3)c2s1 [SIBENADET] | 8.09 | 2.51 | 146 min | 8.55 | 6.58 | < 8 | – | –
O=c1[nH]c2c(O)ccc(CCNCCCSCCOCCc3ccccc3)c2s1 | 8.02 | 2.31 | > 180 min | – | 10.2 | > 8 | 270 | 3.53
Oc1nc2c(O)ccc(CCNCCCOCCOCCc3ccccc3)c2s1 | 8.82 | 1.19 | > 180 min | 7.65 | 9.23 | > 8 | – | –
Oc1nc2c(O)ccc(CCNCCSCCCOCCc3ccccn3)c2s1 | 7.51 | 1.75 | > 180 min | – | – | > 8 | – | –
Oc1nc2c(O)ccc(CCNCCNCCCOCCc3ccccc3)c2s1 | 7.01 | 0.88 | 32 min | – | – | > 8 | – | –
O=S(=O)(Nc1ccc(CCOCCCSCCNCCc2ccc(O)c3nc(O)sc23)cc1)c1ccccc1 | 7.57 | 3.52 | > 180 min | – | – | > 8 | – | –
O=S(=O)(CCCOCCc1nccs1)CCNCCc1ccc(O)c2nc(O)sc12 | 7.72 | 2.35 | 45 min | – | – | < 8 | – | –
O=S(=O)(CCCOCCc1ccc(Br)cc1)CCNCCc1ccc(O)c2nc(O)sc12 | 7.4 | 3.36 | > 180 min | – | – | > 8 | – | –
O=c1[nH]c2c(O)ccc(CCNCCCS(=O)(=O)CCCOCCc3ccccc3)c2s1 | 8.24 | 1.65 | 172 min and 80 min | – | – | > 8 | 270 | 1.34
O=C(CCOCCc1ccccc1)NCCNCCc1ccc(O)c2nc(O)sc12 | 9.27 | 1.34 | 57 min | 7.62 | 8.75 | > 8 | 150 | –
CC(C)(CNCCc1ccc(O)c2nc(O)sc12)CSCCOCCc1ccccc1N | 7.13 | 3.44 | > 180 min | – | – | > 8 | – | –
O=C(CCCCCNCCc1ccc(O)c2nc(O)sc12)NCCc1ccccc1 | 7.18 | 1.29 | 22 min | – | – | > 8 | 90 | –
O=S(=O)(CCCNCCc1ccc(O)c2nc(O)sc12)CCNCCOc1ccccc1 | 6.73 | 0.9 | 28 min | – | – | > 8 | – | –
O=S(=O)(CCCOCCCCc1ccccc1)CCNCCc1ccc(O)c2nc(O)sc12 | 7.76 | 3.62 | > 180 min | – | – | < 8 | – | –
O=S(=O)(CCCNCCc1ccc(O)c2nc(O)sc12)CCOCCCc1ccccc1 | 8.69 | 2.1 | > 180 min | – | – | > 8 | – | –
Cc1cnc(CCOCCCS(=O)(=O)CCNCCc2ccc(O)c3nc(O)sc23)s1 | 7.61 | 2.87 | 126 min | – | – | < 8 | – | –
CN(CCCS(=O)(=O)CCOCCc1ccccc1)CCc1ccc(O)c2nc(O)sc12 | – | – | – | – | – | – | 150 | –
[O-][S+](CCCNCCc1ccc(O)c2nc(O)sc12)CCOCCc1ccccc1 (stereo unspecified) | 8.47 | 1.12 | 84 min | – | – | > 8 | – | –
